Measurements published in patent US4225595A, “Piperazine phosphates and phosphonate insecticides” (priority 1979, dated 1980).

Assays:
[1] = test system: German Cockroach [Blatella germanica (Linne)]; experiment: German Cockroach (GR) direct spray, mortality 7 days later; type: in vivo; settings: one-month-old nymphs, initial 0.1%
Procedure: (§1) Screening was initiated at a maximal concentration level believed to be injurious to the insect population. The initial level should not be understood as representing a maximum at which a viable test for insecticidal activity can be conducted.
(§2) Mobile insects, such as houseflies, German cockroaches, Lygus bugs, were contained for treatment in circular cardboard cages covered with cellophane on the bottom and tulle netting on the top.
(§3) The insecticidal properties were tested in the same manner as for black beam aphids with the substitution of the nasturtiums by radish plants, Rhaphanus sativus. German Cockroach [Blatella germanica (Linne)], (GR)--Direct Spray
(§4) Test compounds were diluted in a 50--50 acetonewater solution. Two cubic centimeters (cc) of the compound solutions were sprayed through a DeVilbiss type EGA hand spray gun into cages each containing 10 one-month-old German cockroach nymphs.
The percent mortality was recorded 7 days later. Test concentrations ranged from 0.1% down to that at which approximately 50% mortality occurs.
(§5) A less than 50% mortality rate at the initial concentration is indicated by a "greater than" sign (>). An approximately 50% mortality rate is indicated by the initial concentration rate. Other results are the dilutions at which an LD50 was achieved.

[2] = test system: Cabbage Looper [Trichoplusia ni (Hubner)]; experiment: Cabbage Looper (CL) leaf dip assay; type: in vivo; settings: squash cotyledons, initial 0.1%
Procedure: as §1
(§6) Test compounds were diluted in a 50--50 acetone-water solution. Approximately 1×1.5 inch sections of curly dock (Rumex crispus) leaves were immersed in the test solution for 2-3 seconds. After drying on a wire screen, the leaves were placed in petri dishes containing a moistened piece of filter paper. Each dish was infested with 5 secondinstar saltmarsh larvae.
(§7) Mortality of the larvae was recorded 48 hours later. A piece of synthetic media was added to the dishes containing surviving larvae. The larvae were then observed for 5 additional days for delayed effects of the test compounds. Test concentrations ranged from 0.05% down to that at which approximately 50% mortality occurs. Cabbage Looper [Trichoplusia ni (Hubner)], (CL)
The effectiveness of the compounds was tested in the same manner as for the saltmarsh caterpillar with two exceptions. Cotyledons of hyzini squash (Calabacita abobrinha, were substituted for curly dock leaves and the initial test concentration was 0.1%. Tobacco Budworm [Heliothis virescens (Fabricius)], (TBW)
as §5

[3] = test system: Southern House Mosquito Larvae (Culex pipiens quinquefasciatus); experiment: Southern House Mosquito larvae (M) assay, mortality 48 hours after treatment; type: in vivo; settings: third-instar larvae in aqueous solution, initial 1 ppm, read-out: LD50 M
Procedure: as §1
Tobacco budworms were tested in the same manner as the cabbage looper. Romaine lettuce (Latuca sativa) leaves provided the substrate. Southern House Mosquito Larvae (Culex pipiens quinquefasciatus), (M)
Ten third-instar larvae were placed in a six ounce wax paper cup containing 100 ml of an aqueous solution of the test compounds at a concentration of 1 ppm. The treated larvae were stored at 70° F. (21.5° C.) and mortality was recorded 48 hours after treatment. Two-Spotted Mite [Tetranychus urticae (Koch)], (2SM)
as §5

[4] = test system: Lygus Bug [Lygus hesperus (Knight)]; experiment: Lygus Bug (LB) direct spray assay, mortality 48 hours later; type: in vivo; settings: adults, initial 0.05%
Procedure: as §1, §2, §4
Lygus Bug [Lygus hesperus (Knight)], (LB)--Direct Spray Assay
(§8) The species was treated in the same manner as the German cockroach. The cages contained one string beam pod and 10 adult Lygus bugs. The percent mortality was recorded 48 hours later. Test concentrations ranged from 0.05% down to that at which approximately 50% mortality occurs. Saltmarsh Caterpillar [Estigmene acrea (Drury)], (SMC)--Leaf Dip Assay
as §5

[5] = test system: Saltmarsh Caterpillar [Estigmene acrea (Drury)]; experiment: Saltmarsh Caterpillar (SMC) leaf dip assay; type: in vivo; settings: curly dock leaves, second-instar larvae, 48 hours + 5 days
Procedure: as §1, §8, §6, §7, §5

[6] = test system: Two-Spotted Mite [Tetranychus urticae (Koch)]; experiment: Two-Spotted Mite (2SM) plant dip assay, mortality seven days later; type: in vivo; settings: for LD50 2SM Adults: adult mites; for LD50 2SM Eggs: eggs (nymphs hatching after treatment)
Source text: (§9) Screening was initiated at a maximal concentration level believed to be injurious to the insect population. The initial level should not be understood as representing a maximum at which a viable test for insecticidal activity can be conducted. […]
Pinto bean plants (Phaseolus vulgaris) approximately 10 cm high were transplanted into sandy loam soil in three-inch clay pots. The plants were thoroughly infested with two-spotted mites of mixed ages and sexes. Twenty-four hours after infestation the plants were inverted and dipped for 2-3 seconds in 50--50 acetone-water solutions of the test compounds.
Mortality ratings for both adult mites and nymphs hatching after treatment were taken seven days later. Test concentrations ranged from 0.05% down to that at which 50% mortality occurs.
as §5

[7] = test system: Black Bean Aphid [Aphis fabae (Scop.)]; experiment: Black Bean Aphid (BBA) plant spray assay, mortality after three days; type: in vivo; settings: spray on infested nasturtium plants
Source text: as §9
(§10) Nasturtium plants, Tropaeolum sp., approximately five centimeters (cm) high were transplanted into sandy loam soil in three-inch clay pots. Each pot was infested with 25-50 black bean aphids of mixed ages. Twenty-four hours later the pots were sprayed to the point of run-off with 50--50 acetone-water solutions of the test compounds.
(§11) Mortality rates were recorded after the infested plants had been held in the greenhouse for three days. Test concentrations ranged from 0.05% down to that at which 50% mortality occurs. Green Peach Aphid [Myzus persicae (Sulzer)], (GPA)
as §5

[8] = test system: Housefly [Musca domestica (Linn.)]; settings: topical, 48 h
Procedure: Housefly [Musca domestica (Linn.)], (HF)--Contact Residue Assay
Test compounds were diluted in acetone and aliquots were pipetted onto the bottom of 55×15 millimeter (mm) aluminum dishes. One ml of acetone containing 0.02% peanut oil was added to each dish to insure even spreading. After all solvents had evaporated the dishes were placed in cages each containing 25 one to two day old female houseflies. Each cage contained a sugar-water cotton plug for sustanence of the flies.
Mortality rates were recorded after 48 hours. Test levels ranged from 10 μ/25 .female. houseflies down to that at which approximately 50% mortality occurs.

[9] = test system: Green Peach Aphid [Myzus persicae (Sulzer)]; experiment: Green Peach Aphid (GPA) plant spray assay; type: in vivo; settings: spray on infested radish plants, three days
Source text: as §1, §10, §11, §3, §5

[10] = test system: Tobacco Budworm [Heliothis virescens (Fabricius)]; settings: leaf dip, Romaine lettuce leaves
Procedure: Mortality of the larvae was recorded 48 hours later. A piece of synthetic media was added to the dishes containing surviving larvae. […] Test concentrations ranged from 0.05% down to that at which approximately 50% mortality occurs.

Q: For CCOC(=O)N1CCN(C(=O)CSP(=S)(OCC)OCC)C(C)C1 (stereo not drawn) [Compound 13, 1-N-ethoxycarbo-4-N'-O,O-diethylphosphorodithioylacetyl-3-methyl piperazine], which “LD50 GR” value [1] is on record?
A: > .1%

Q: And the “LD50 CL” value [2]?
A: > .1%

Q: What about the LC50 [3] of the same compound?
A: > 1 µg/mL

Q: And the “LD50 LB” value [4]?
A: > .05%

Q: What about the “LD50 SMC” value [5] of the same compound?
A: > .05%

Q: What about the “LD50 2SM Adults” value [6] of the same compound?
A: .003%

Q: And the “LD50 2SM Eggs” value [6]?
A: .006%

Q: What about the “LD50 BBA” value [7] of the same compound?
A: .003%

Q: And the “LD50 HF” value [8]?
A: > 10 μg/25

Q: And the “LD50 GPA” value [9]?
A: .008%

Q: What about the “LD50 TBW” value [10] of the same compound?
A: > .05%

Q: Which results are given for CCOC(=O)N1CCN(C(=O)CSP(=S)(OCC)OCC)CC1 [Compound 12, 1-N-ethoxycarbo-4-N-O,O-diethylphosphorodithioylacetyl piperazine]?
A: LD50 GR [1]: > .1%; LD50 CL [2]: > .1%; LC50 [3]: > 1 µg/mL; LD50 LB [4]: > .05%; LD50 SMC [5]: > .05%; LD50 2SM Adults [6]: .001%; LD50 2SM Eggs [6]: .002%; LD50 BBA [7]: .001%; LD50 HF [8]: > 10 μg/25; LD50 GPA [9]: .008%; LD50 TBW [10]: > .1%

Q: What does the source list for CCOP(=S)(OCC)SCC(=O)N1CCN(C(=O)OC(C)C)CC1 [Compound 19, 1-N-isopropoxycarbo-4-N-O,O-diethylphosphorodithioylacetyl piperazine]?
A: LD50 GR [1]: > .1%; LD50 CL [2]: > .1%; LC50 [3]: > 1 µg/mL; LD50 LB [4]: > .05%; LD50 SMC [5]: > .05%; LD50 2SM Adults [6]: < .05%; LD50 2SM Eggs [6]: < .05%; LD50 BBA [7]: .0006%; LD50 HF [8]: > 10 μg/25; LD50 GPA [9]: .006%; LD50 TBW [10]: > .1%
